Results from patent publication US20090170847A1, “Imidazopyridine Derivatives Inhibiting Protein Kinase Activity, Method for the Preparation Thereof and Pharmaceutical Composition Containing Same” (priority 2006, published 2009).

biological target: T1, Aurora Kinase A (Homo sapiens, UniProt O14965); assay: Aurora kinase A enzyme inhibition (Kemptide, Kinase glo); assay type: biochemical; conditions: 1 μM ATP
T1 construct: purchased Upstate
T1 sequence (O14965 1-403): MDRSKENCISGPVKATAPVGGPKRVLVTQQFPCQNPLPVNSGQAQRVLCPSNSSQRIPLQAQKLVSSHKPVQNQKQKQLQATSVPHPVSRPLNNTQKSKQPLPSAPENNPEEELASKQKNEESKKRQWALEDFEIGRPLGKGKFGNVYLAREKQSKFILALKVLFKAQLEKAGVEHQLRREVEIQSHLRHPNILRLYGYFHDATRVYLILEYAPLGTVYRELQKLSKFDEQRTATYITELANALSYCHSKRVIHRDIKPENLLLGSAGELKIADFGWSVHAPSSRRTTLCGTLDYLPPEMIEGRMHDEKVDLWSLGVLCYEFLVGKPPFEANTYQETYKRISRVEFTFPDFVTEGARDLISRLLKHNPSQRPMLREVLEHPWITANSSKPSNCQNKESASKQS
Procedure: The test solution prepared above by dissolving a test compound in DMSO was added to the reaction solution in an amount of less than 5% based on the total reaction solution to analyze the capacity for enzyme inhibitory activity. The cpm value obtained when the test compounds was present relative to the cpm value in the absence of the test compound was represented by percentage, and IC50 (μM) was determined as the concentration of the test compound required to inhibit the enzyme activity by 50% relatively to the control solution.
A test solution was prepared by dissolving one of the compounds of the Examples in DMSO at a concentration of 12.5 mM. Enzyme reaction was conducted in a buffer solution containing 20 mM of HEPES (pH 7.5), 5 mM MgCl2, 0.5 mM ethylene glycol bis(b-aminoethylether) tetraacetic acid (EGTA), 200 mM of KCl, 1 mM of DTT and 0.05% triton X-100. 100 μM of Kemptide peptide (Upstate) and 1 μM of ATP were added to the buffer solution as substrates. Recombinant aurora kinase (Upstate) was added the resulting mixture at a concentration of 10 nM and reaction was carried out at 30° C. for 1 hour. 25 μl of the resulting solution was mixed with 25 μl of Kinase glo (promega), thereby inducing the second reaction by luciferase. The amount of remained ATP was measured by fusion a-FP (Packard, USA). Inhibitory capacities of the test compounds for the enzyme activity were assessed according to the same method as in GSK-3β analysis, and IC50 value was calculated.

Structure (SMILES)	IC50 [µM]
O=C(NC1C2CC3CC(C2)CC1C3)c1ccnc2[nH]c(-c3ccc(F)cc3)nc12 (centres unmarked) [Example 264, 2-(4-fluoro-phenyl)-3H-imidazo[4,5-b]pyridine-7-carboxylic acid adamantan-2-ylamide]	0.07
CN(C)CCOc1ccncc1NC(=O)c1ccnc2[nH]c(-c3ccc(F)cc3)nc12 [Example 313, 2-(4-fluoro-phenyl)-3H-imidazo[4,5-b]pyridine-7-carboxylic acid[4-(2-dimethylamino-ethoxy)-pyridin-3-yl]-amide]	1.1
CC1(C)C2CC[C@@]1(C)[C@@H](NC(=O)c1ccnc3[nH]c(-c4ccc(NCCN5CCOCC5)cc4)nc13)C2 [Example 368, 2-[4-(2-morpholin-4-yl-ethylamino)-phenyl]-3H-imidazo[4,5-b]pyridine-7-carboxylic acid(1,7,7-trimethyl-bicyclo[2.2.1]heptin-2-yl)-amide]	0.04
CN1CCN(c2ccc(-c3nc4c(C(=O)NC5CC6CCC5C6)ccnc4[nH]3)cc2)CC1 (centres unmarked) [Example 371, 2-[4-(4-methyl-piperazin-1-yl)-phenyl]-3H-imidazo[4,5-b]pyridine-7-carboxylic acid bicyclo[2.2.1]heptin-2-ylamide]	0.113
CCC(C)(C)NC(=O)c1ccnc2[nH]c(-c3ccc(NCCN(C)C)cc3)nc12 [Example 381, 2-[4-(2-dimethylamino-ethylamino)-phenyl]-3H-imidazo[4,5-b]pyridine-7-carboxylic acid(1,1-dimethyl-propyl)-amide]	0.033
CCN(CC)C1CCN(c2ccc(-c3nc4c(C(=O)Nc5ccc(C)nc5)ccnc4[nH]3)cc2)C1 (centres unmarked) [Example 409, 2-[4-(3-diethylamino-pyrrolidin-1-yl)-phenyl]-3H-imidazo[4,5-b]pyridine-7-carboxylic acid(6-methyl-pyridin-3-yl)-amide]	0.25
CCSc1ccncc1NC(=O)c1ccnc2[nH]c(-c3ccc(N4CCN(C)CC4)cc3)nc12 [Example 418, 2-[4-(4-methyl-piperazin-1-yl)-phenyl]-3H-imidazo[4,5-b]pyridine-7-carboxylic acid(4-ethylsulfanyl-pyridin-3-yl)-amide]	0.2
CCOc1cc(C)ncc1NC(=O)c1ccnc2[nH]c(-c3ccc(N4CCN(C)CC4)cc3)nc12 [Example 423, 2-[4-(4-methyl-piperazin-1-yl)-phenyl]-3H-imidazo[4,5-b]pyridine-7-carboxylic acid(4-ethoxy-6-methyl-pyridin-3-yl)-amide]	0.105
CCOc1ccncc1NC(=O)c1ccnc2[nH]c(-c3ccc(OC)cc3)nc12 [Example 425, 2-(4-methoxy-phenyl)-3H-imidazo[4,5-b]pyridine-7-carboxylic acid(4-ethoxy-pyridin-3-yl)-amide]	> 6

biological target: human GSK-3β (Homo sapiens, UniProt P49841); assay: GSK-3β enzyme inhibition (32P-ATP, phospho-CREB peptide, filter paper); assay type: biochemical; conditions: 100 μM ATP, 30° C., 1 hour
Procedure: GSK-3β was prepared by a gene recombination method.
First, primers corresponding to 5′-end and 3′-end of polynucleotide encoding human GSK-3β were designed and synthesized from nucleotide sequence of human GSK-3β (GenBank Reg. No. L33801). Then, the primers were amplified by PCR (polymerase chain reaction) in which a human DNA sequence was employed as a template and treated with restriction enzyme BamH1/XhoI. The resulting gene fragments were inserted into the corresponding identical restriction sites of pGex vector (GE Healthcare Life Science) to prepare an expression vector for transformation of E. coli BL21 (DE3) strain (Invitrogen). The transformed E. coli strain was inoculated to LB medium (1% Bacto tryptone, 0.5% yeast extract, 1% sodium chloride) and cultured until the optical density of the bacterial cells was about 0.5 at 600 nm and 37° C. Then, IPTG (isopropyl-β-D-thiogalactoside) was added thereto to a final concentration to 0.5 mM at 18° C. 16 hours after IPTG addition, the cells were subjected to centrifugation at 10,000×g for 10 mins and cell precipitates were collected. The cell precipitates were suspended in a buffer solution (30 mM tris-HCl (pH 7.5), 100 mM NaCl, 5% glycerol, 2 mM DTT) and the cells were smashed in an ice bath using a Sonic Dismembrator (Fisher, USA). The resulting solution was centrifuged at 16,000 rpm for 30 mins.
The supernatant obtained above was introduced to a pre-equilibrated GST column (Pharmacia, USA) and eluted by 5 mM glutachione. The effuent was subjected to SDS-PAGE and GSK-3β protein was collected. GST protein was cutt using thrombin. The GSK-3β protein thus obtained was diluted with a buffer solution (20 mM HEPES (pH 7.5), 5% glycerol, 2 mM DTT) until the concentration of NaCl reached 50 mM. The diluted solution was introduced to Mono S column (Pharmacia, USA) equilibrated with the above buffer solution and eluted with a aqueous NaCl while changing the concentration from 0 to 1 M NaCl, and GSK-3β protein was collected by a electrophoresis. The purified protein was used in the analysis for the activity for enzyme activity.
The enzyme reaction was conducted in a buffer solution (50 mM of tris-HCl (pH 7.5), 10 mM of MgCl2, 1 mM of EGTA, 1 mM of EDTA and 1 mM of DTT). 100 μM of phosho-CREB peptide (NEB, USA), 100 μM of ATP and 1 μCi of ^32P-ATP were added to the buffer solution as substrates. And then 100 nM of recombinant GSK-3β was added thereto and the mixture was reacted at 30° C. for 1 hour. The reaction was terminated by the addition of 5 μl of 5% phosphoric acid solution to 25 μl of the reaction mixture. The resulting solution was subjected to centrifugation at 15,000 for 10 mins and 20 μl of the supernatant thus obtained was dropped on whatman p81 filter paper. The filter paper was washed in 0.5% phosphoric acid solution for 10 mins. After repeating the washing 3 times, the filter paper was dried and its cpm (counter per mins) was assessed.
The test solution prepared above by dissolving a test compound in DMSO was added to the reaction solution in an amount of less than 5% based on the total reaction solution to analyze the capacity for enzyme inhibitory activity.

Sequence of human GSK-3β (P49841 whole entry): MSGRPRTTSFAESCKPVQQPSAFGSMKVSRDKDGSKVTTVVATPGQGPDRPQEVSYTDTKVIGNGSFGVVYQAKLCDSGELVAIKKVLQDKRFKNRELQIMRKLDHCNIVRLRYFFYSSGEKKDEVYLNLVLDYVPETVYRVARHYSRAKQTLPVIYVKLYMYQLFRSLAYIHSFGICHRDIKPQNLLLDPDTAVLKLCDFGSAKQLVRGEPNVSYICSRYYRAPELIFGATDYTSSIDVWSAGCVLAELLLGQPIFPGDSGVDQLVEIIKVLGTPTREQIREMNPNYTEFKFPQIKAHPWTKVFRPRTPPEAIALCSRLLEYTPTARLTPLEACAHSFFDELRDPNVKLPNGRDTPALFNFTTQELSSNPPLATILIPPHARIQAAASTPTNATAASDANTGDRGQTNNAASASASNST

Structure (SMILES)	IC50 [µM]
CC(=O)Nc1ccc(CCNC(=O)c2ccnc3[nH]c(-c4ccccc4)nc23)cc1 [Example 1, 2-phenyl-3H-imidazo[4,5-b]-pyridine-7-carboxylic acid [2-(4-acetylamino-phenyl)-ethyl]-amide]	0.02
CC(=O)Nc1ccc(CCNC(=O)c2ccnc3[nH]c(-c4ccc(Cl)cc4)nc23)cc1 [Example 44, 2-(4-chloro-phenyl)-3H-imidazo[4,5-b]pyridine-7-carboxylic acid[2-(4-acetylamino-phenyl)-ethyl]-amide]	0.038
CCSc1ccncc1NC(=O)c1ccnc2[nH]c(-c3ccc(Cl)cc3)nc12 [Example 61, 2-(4-chloro-phenyl)-3H-imidazo[4,5-b]pyridine-7-carboxylic acid(4-ethylsulfanyl-pyridin-3-yl)-amide]	0.003
O=C(NCCCc1ccncc1)c1ccnc2[nH]c(-c3cccs3)nc12 [Example 109, 2-thiophen-2-yl-3H-imidazo[4,5-b]pyridine-7-carboxylic acid(3-pyridin-4-yl-propyl)-amide]	0.052
CCOc1cc(C)ncc1NC(=O)c1ccnc2[nH]c(-c3ccc(F)cc3)nc12 [Example 325, 2-(4-fluoro-phenyl)-3H-imidazo[4,5-b]pyridine-7-carboxylic acid(4-ethoxy-6-methyl-pyridin-3-yl)-amide]	0.002
CN1CCN(c2ccc(-c3nc4c(C(=O)Nc5cccnc5)ccnc4[nH]3)cc2)CC1 [Example 327, 2-[4-(4-methyl-piperazin-1-yl)-phenyl]-3H-imidazo[4,5-b]pyridine-7-carboxylic acid pyridin-3-ylamide]	0.05
Cc1ccncc1NC(=O)c1ccnc2[nH]c(-c3ccc(N4CCCC4)cc3)nc12 [Example 332, 2-(4-pyrrolidin-1-yl-phenyl)-3H-imidazo[4,5-b]pyridine-7-carboxylic acid(4-methyl-pyridin-3-yl)-amide]	0.012
CCOc1ccncc1NC(=O)c1ccnc2[nH]c(-c3ccc(N4CCCC4)cc3)nc12 [Example 404, 2-(4-pyrrolidin-1-yl-phenyl)-3H-imidazo[4,5-b]pyridine-7-carboxylic acid(4-ethoxy-pyridin-3-yl)-amide]	0.003
